Data on 78 sequences can be found in the OligoGym collection.

After the bases stand the sugars from the 5' end (letter, count) and the backbone: PS all phosphorothioate, else s phosphorothioate and o phosphodiester by linkage. Methylation of C is not given here. l = locked nucleic acid (LNA); d = 2'-deoxy (DNA)

The target in the data set is SNHG14. The following applies: ASO.

As for TCAGAATAATTCTCCT (sugars l3 d10 l3, PS), the target mRNA inhibition (Human Neuronal Cell, 0.2 µM) was determined as 49% and the target mRNA inhibition (Human Neuronal Cell, 1 µM) amounted to 57%.

As to “TGAAAATCTCAACTACCAT (sugars ldllddddddddlddldll, PS)”, where the note is “Human Neuronal Cell, 7.5 µM”, the target mRNA inhibition was found to be 44%.

For “CTGTTTATACCCTTTCCA (sugars ldlddddddddddlddll, PS)”, the target mRNA inhibition (Human Neuronal Cell, 7.5 µM) came out at 55%.

As to “AAAGATCATTCTCAACAA (sugars l1 d1 l1 d9 l6, PS)”, where the note is “Human Neuronal Cell, 7.5 µM”, the target mRNA inhibition came to 61%.

Turning to “TAAAATTATTTATACACCAT (sugars lldlllldddddddllldll, PS)”, the target mRNA inhibition (Human Neuronal Cell, 7.5 µM) was 26%.

In the case of “ACCTACATCTCATACTT (sugars l3 d11 l3, PS)”, the target mRNA inhibition was 1% (Human Neuronal Cell, 0.2 µM); -10% (Human Neuronal Cell, 1 µM); 6% (Human Neuronal Cell, 5 µM); 94.2% (Mouse Primary Neuronal Cell, 0.005 µM).

For TATGACTTATTCCATA (sugars l2 d10 l4, PS), the target mRNA inhibition (Human Neuronal Cell, 0.2 µM) amounted to 18% and the target mRNA inhibition (Human Neuronal Cell, 1 µM) is 14%.

“TATCTTTCCATTTATTTCCA (sugars l2 d16 l2, PS)”: the target mRNA inhibition (Human Neuronal Cell, 7.5 µM) is -12%.

Take “TATTGATTCAATTCCCT (sugars ldlldddddddllldll, PS)”: the target mRNA inhibition (Human Neuronal Cell, 7.5 µM) amounted to 19%.

Take “TCAAAGCACACCACCAC (sugars l2 d12 l3, PS)”: the target mRNA inhibition is, setting by setting: (Human Neuronal Cell, 0.2 µM) 34%; (Human Neuronal Cell, 1 µM) 47%.

Regarding “GCATTCAACCCTAATCA (sugars l3 d12 l2, PS)”, the target mRNA inhibition turned out to be 39% (Human Neuronal Cell, 0.2 µM) and 50% (Human Neuronal Cell, 1 µM).

Consider AGTTCACTACTATTAC (sugars l3 d10 l3, PS), for which the target mRNA inhibition was 52% (Human Neuronal Cell, 0.2 µM) and 63% (Human Neuronal Cell, 1 µM).

On to TATGACTCCAATAATC (sugars l3 d10 l3, PS), for which the target mRNA inhibition turned out to be 30% (Human Neuronal Cell, 0.2 µM) and 44% (Human Neuronal Cell, 1 µM).

On to “TCCTCTGCTTATAACTT (sugars l3 d12 l2, PS)”, for which the target mRNA inhibition is 53% (Human Neuronal Cell, 0.2 µM) and 62% (Human Neuronal Cell, 1 µM).

In the case of “TTTATCAATATCTTCTCA (sugars lllddlddddddldldll, PS)”, under “Human Neuronal Cell, 7.5 µM”, the target mRNA inhibition is 37%.

As to “TTATACCTTTCTTTAACCCT (sugars lddddlddddddddldddll, PS)”, the target mRNA inhibition (Human Neuronal Cell, 7.5 µM) was determined as 58%.

As to “TTACACTTAATTATACTTCC (sugars ldddddldddddddldldll, PS)”, under “Human Neuronal Cell, 7.5 µM”, the target mRNA inhibition was determined as 61%.

Turning to “CAACATTATTAACCACCTT (sugars ldlldddddddddddldll, PS)”, the target mRNA inhibition (Human Neuronal Cell, 7.5 µM) came to 58%.

Consider “CTGTATACACCATCCCA (sugars l1 d2 l2 d10 l2, PS)”, for which the target mRNA inhibition (Human Neuronal Cell, 7.5 µM) stood at 61%.

For “TTTTTTCTTACTATCTTCAA (sugars l1 d13 l1 d2 l3, PS)”, the target mRNA inhibition (Human Neuronal Cell, 7.5 µM) is 60%.

Take “CTGTATACACCATCCCA (sugars lddldddddddddldll, PS)”: the target mRNA inhibition (Human Neuronal Cell, 7.5 µM) is 49%.

In the case of “GTTTCCATCTACTATTAA (sugars llddldddddddldldll, PS)”, under “Human Neuronal Cell, 7.5 µM”, the target mRNA inhibition is 31%.

Turning to “TTTTTATACCTTTCTTTAAC (sugars lddldddddddddldlldll, PS)”, where the note is “Human Neuronal Cell, 7.5 µM”, the target mRNA inhibition was 61%.

Take TTACACATGTATATCC (sugars l3 d10 l3, PS): the target mRNA inhibition is 41% (Human Neuronal Cell, 0.2 µM) and 36% (Human Neuronal Cell, 1 µM).

Turning to “TATACCTTTCTTTAACCCTT (sugars lddddldddddddddlddll, PS)”, under “Human Neuronal Cell, 7.5 µM”, the target mRNA inhibition was found to be 61%.

Consider “TTATTCTTACCGTCTTT (sugars l2 d11 l4, PS)”, for which the target mRNA inhibition (Human Neuronal Cell, 0.2 µM) was found to be 61% and the target mRNA inhibition (Human Neuronal Cell, 1 µM) came to 65%.

Take “GATCATTCTCAACAATTAA (sugars lldllddddddddlldlll, PS)”: for the setting “Human Neuronal Cell, 7.5 µM”, the target mRNA inhibition is 28%.

With CTCAGACATCTCAATA (sugars l4 d10 l2, PS), the target mRNA inhibition was 45% (Human Neuronal Cell, 0.2 µM) and 43% (Human Neuronal Cell, 1 µM).

For “ATCATTCTCAACAATTAAA (sugars llllldddddddlldldll, PS)”, the target mRNA inhibition (Human Neuronal Cell, 7.5 µM) was determined as 41%.

Turning to GACTACATTCTCAATA (sugars l3 d10 l3, PS), the target mRNA inhibition is 30% (Human Neuronal Cell, 0.2 µM) and 50% (Human Neuronal Cell, 1 µM).

As to “CTGTATACACCATCCCA (sugars l2 d2 l1 d10 l2, PS)”, for the setting “Human Neuronal Cell, 7.5 µM”, the target mRNA inhibition was found to be 60%.

As to “TATTGATTCAATTCCCT (sugars l1 d1 l3 d10 l2, PS)”, the target mRNA inhibition (Human Neuronal Cell, 7.5 µM) stood at 71%.

Consider “TTATAGCCATTCTATCT (sugars ldddldddddddlldll, PS)”, for which the target mRNA inhibition (Human Neuronal Cell, 7.5 µM) came out at 24%.

Regarding TACTATCTTTGACATT (sugars l4 d10 l2, PS), the target mRNA inhibition amounted to 49% (Human Neuronal Cell, 0.2 µM) and 58% (Human Neuronal Cell, 1 µM).

“ATATTGATTCAATTCCC (sugars l2 d9 l2 d1 l3, PS)”: the target mRNA inhibition (Human Neuronal Cell, 7.5 µM) turned out to be 66%.

For “TTTTTATACCTTTCTTTAAC (sugars lldllddddddddllddlll, PS)”, the target mRNA inhibition (Human Neuronal Cell, 7.5 µM) worked out at 60%.

In the case of “ATTTTTTTCTTACTATCTTC (sugars lldlddddddddddlddlll, PS)”, the target mRNA inhibition (Human Neuronal Cell, 7.5 µM) was 57%.

For “TATTGATTCAATTCCCT (sugars l2 d11 l4, PS)”, the target mRNA inhibition runs as follows: (Human Neuronal Cell, 0.2 µM) 58%; (Human Neuronal Cell, 1 µM) 71%.

In the case of TACACATCTTGTATAC (sugars l3 d10 l3, PS), the target mRNA inhibition by setting is: (Human Neuronal Cell, 0.2 µM) 14%; (Human Neuronal Cell, 1 µM) 36%.

Regarding “AGTTCTACTATACTTTCC (sugars l1 d13 l1 d1 l2, PS)”, the target mRNA inhibition (Human Neuronal Cell, 7.5 µM) was determined as 47%.

With “GTTTATACCCTTTCCAAT (sugars ldldldddddddllddll, PS)”, under “Human Neuronal Cell, 7.5 µM”, the target mRNA inhibition came out at 39%.

As for “ACTCTGCAATACACCAA (sugars lldlddddddddlldll, PS)”, the target mRNA inhibition (Human Neuronal Cell, 7.5 µM) was determined as 65%.

On to “TATACCTTTCTTTAACCCTT (sugars ldddlddddddddddlddll, PS)”, for which, for the setting “Human Neuronal Cell, 7.5 µM”, the target mRNA inhibition is 54%.

With “TTTACACTTAATTATACTTC (sugars lddldldddddddlldllll, PS)”, the target mRNA inhibition (Human Neuronal Cell, 7.5 µM) stood at 36%.

Turning to “TGTTTATACCCTTTCCAA (sugars lldlddddddddddldll, PS)”, where the note is “Human Neuronal Cell, 7.5 µM”, the target mRNA inhibition was 57%.

With “AGATCATTCTCAACAATTA (sugars ldldlldddddddddddll, PS)”, under “Human Neuronal Cell, 7.5 µM”, the target mRNA inhibition was found to be 57%.

“TCCATTTATTTCCATTTATT (sugars llddlddddddddldlddll, PS)”: the target mRNA inhibition (Human Neuronal Cell, 7.5 µM) is 59%.

“AAATCTCAACTACCATTTTT (sugars ldldddldddddddllldll, PS)”: the target mRNA inhibition (Human Neuronal Cell, 7.5 µM) was determined as 14%.

As to “ATCTCATGACCACCTAA (sugars lddlldddddddldlll, PS)”, the target mRNA inhibition (Human Neuronal Cell, 7.5 µM) came out at 68%.

“AGCAACATTATTAACCACC (sugars l1 d15 l3, PS)”: the target mRNA inhibition (Human Neuronal Cell, 7.5 µM) was 38%.

“TACACTTAATTATACTTCCA (sugars ldldddlddddddddlddll, PS)”: the target mRNA inhibition (Human Neuronal Cell, 7.5 µM) amounted to 58%.

As to “ATTGATTCAATTCCCTT (sugars ldlddddddddllldll, PS)”, the target mRNA inhibition (Human Neuronal Cell, 7.5 µM) came out at 47%.

For GTTAACCTATATTTCA (sugars l4 d10 l2, PS), the target mRNA inhibition turned out to be 15% (Human Neuronal Cell, 0.2 µM) and 6% (Human Neuronal Cell, 1 µM).

Regarding “ATCTCATGACCACCTAA (sugars l1 d3 l1 d8 l4, PS)”, where the note is “Human Neuronal Cell, 7.5 µM”, the target mRNA inhibition came out at 58%.

With “TGTTTATACCCTTTCCAA (sugars l1 d4 l1 d9 l3, PS)”, where the note is “Human Neuronal Cell, 7.5 µM”, the target mRNA inhibition was 56%.

With “ATTTACACTTAATTATACTT (sugars llddlldddddddlllddll, PS)”, under “Human Neuronal Cell, 7.5 µM”, the target mRNA inhibition amounted to 36%.

“TATTGATTCAATTCCCT (sugars lddllddddddddldll, PS)”: the target mRNA inhibition (Human Neuronal Cell, 7.5 µM) is 64%.

Take “CCATTTATTTCCATTTATT (sugars ldldlddddddddldldll, PS)”: the target mRNA inhibition (Human Neuronal Cell, 7.5 µM) turned out to be 55%.

In the case of “AAAATTATTTATACACCATC (sugars lldllldddddddlddllll, PS)”, under “Human Neuronal Cell, 7.5 µM”, the target mRNA inhibition came out at 52%.

Take “ATTGATTCAATTCCCTT (sugars ldllddddddddlddll, PS)”: the target mRNA inhibition (Human Neuronal Cell, 7.5 µM) was 74%.

Turning to CAAAGATCATTCTCAAC (sugars l3 d8 l6, PS), the target mRNA inhibition (Human Neuronal Cell, 7.5 µM) came out at 53%.

On to “TTATAGCCATTCTATCT (sugars l3 d9 l1 d2 l2, PS)”, for which, for the setting “Human Neuronal Cell, 7.5 µM”, the target mRNA inhibition turned out to be 52%.

Take “TTTATCAATATCTTCTCACT (sugars ldddddldddddddlddlll, PS)”: for the setting “Human Neuronal Cell, 7.5 µM”, the target mRNA inhibition turned out to be 45%.

For “AATTATTTATACACCATCAT (sugars llddldddddddddldllll, PS)”, the target mRNA inhibition (Human Neuronal Cell, 7.5 µM) was determined as 70%.

Consider “TTCTGTATACACCATCC (sugars l3 d1 l1 d10 l2, PS)”, for which the target mRNA inhibition (Human Neuronal Cell, 7.5 µM) amounted to 54%.

With TCCATGCTACATAAAC (sugars l4 d10 l2, PS), the target mRNA inhibition worked out at 52% (Human Neuronal Cell, 0.2 µM) and 56% (Human Neuronal Cell, 1 µM).

Turning to “TATACCTTTCTTTAACCCT (sugars l2 d15 l2, PS)”, the target mRNA inhibition was 13% (Human Neuronal Cell, 0.2 µM) and 37% (Human Neuronal Cell, 1 µM).

Consider “TTTATCAATATCTTCTCA (sugars lldldldddddddlldll, PS)”, for which, for the setting “Human Neuronal Cell, 7.5 µM”, the target mRNA inhibition was found to be 66%.

For the sequence “CCCACCAAAGGATATATT (sugars l3 d12 l3, PS)”, the target mRNA inhibition is -28% (Human Neuronal Cell, 0.2 µM); 33% (Human Neuronal Cell, 1 µM); 16% (Human Neuronal Cell, 5 µM).

Consider “CTGTATACACCATCCCA (sugars lddddddddddldldll, PS)”, for which the target mRNA inhibition (Human Neuronal Cell, 7.5 µM) stood at 49%.

For the sequence “GCACATTCTTTCTATAC (sugars l3 d12 l2, PS)”, for the setting “Human Neuronal Cell, 7.5 µM”, the target mRNA inhibition came out at 52%.

TAGACTAATCCTCTTA (sugars l4 d10 l2, PS): the target mRNA inhibition reads like this: (Human Neuronal Cell, 0.2 µM) 48%; (Human Neuronal Cell, 1 µM) 56%.

With TAGCCTACTTTAATAT (sugars l4 d10 l2, PS), the target mRNA inhibition (Human Neuronal Cell, 0.2 µM) was found to be 25% and the target mRNA inhibition (Human Neuronal Cell, 1 µM) turned out to be 11%.

As to “CCATTTATTTCCATTTATT (sugars llddlddddddddldddll, PS)”, where the note is “Human Neuronal Cell, 7.5 µM”, the target mRNA inhibition was 61%.

With “TCCTTTAGCATTTCTAT (sugars l3 d11 l3, PS)”, the target mRNA inhibition came to 45% (Human Neuronal Cell, 0.2 µM) and 60% (Human Neuronal Cell, 1 µM).

“ATCTCATGACCACCTAA (sugars l3 d11 l3, PS)”: the target mRNA inhibition reads like this: (Human Neuronal Cell, 0.2 µM) 54%; (Human Neuronal Cell, 1 µM) 56%.

On to “TTGATTCAATTCCCTTA (sugars ldlldddddddldldll, PS)”, for which, for the setting “Human Neuronal Cell, 7.5 µM”, the target mRNA inhibition worked out at 68%.

As for “CCATTTATTTCCATTTATT (sugars lddlllddddddldddlll, PS)”, where the note is “Human Neuronal Cell, 7.5 µM”, the target mRNA inhibition came out at 54%.
